According to PubChem BioAssay AID264 (DTP/NCI, 2004):
Where “and” joins values, the source holds several entries; their conditions need not be identical. Equal values may be shown once. Inconclusive results are not listed.

Tested on: nude mice, LX-1 lung xenograft intrarenal, tumor weight T/C
Assay: NCI In Vivo Anticancer Drug Screen. Data for tumor model Human Lung LX-1 Xenograft (intrarenal inoculation) in NU/NU Swiss (nude) mice
Conditions: endpoint: mean tumor weight change, higher = larger tumour
Procedure, shortened: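 Antitumor effect is expressed as a ratio: the mean tumor measurement of the drug-treated group relative to that of the vehicle-dosed control group.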

[1] = dose: 300.0 mg/kg/injection, schedule: Q04DX003 (sc), vehicle: saline with Tween-80
[2] = dose: 600.0 mg/kg/injection, schedule: Q04DX003 (sc), vehicle: saline with Tween-80
[3] = dose: 300.0 mg/kg/injection, schedule: Q04DX003 (sc), vehicle: Klucel (hydroxypropylcellulose) (HPC)
[4] = dose: 100.0 mg/kg/injection, schedule: Q01DX010 (sc), vehicle: Klucel (hydroxypropylcellulose) (HPC)
[5] = dose: 200.0 mg/kg/injection, schedule: Q01DX010 (sc), vehicle: Klucel (hydroxypropylcellulose) (HPC)
[6] = dose: 75.0 mg/kg/injection, schedule: Q04DX003 (sc), vehicle: saline with Tween-80
[7] = dose: 150.0 mg/kg/injection, schedule: Q04DX003 (sc), vehicle: saline with Tween-80
[8] = dose: 100.0 mg/kg/injection, schedule: Q04DX003 (sc), vehicle: saline with Tween-80
[9] = dose: 200.0 mg/kg/injection, schedule: Q04DX003 (sc), vehicle: saline with Tween-80
[10] = dose: 400.0 mg/kg/injection, schedule: Q04DX003 (sc), vehicle: saline with Tween-80
[11] = dose: 800.0 mg/kg/injection, schedule: Q04DX003 (sc), vehicle: saline with Tween-80
[12] = dose: 3.13 mg/kg/injection, schedule: Q01DX010 (sc), vehicle: Klucel (hydroxypropylcellulose) (HPC)
[13] = dose: 6.25 mg/kg/injection, schedule: Q01DX010 (sc), vehicle: Klucel (hydroxypropylcellulose) (HPC)

O=NN(CCCl)C(=O)NC1CCCCC1
T/C (dose: 4.0 mg/kg/injection, schedule: Q01DX010 (ip), vehicle: saline with Tween-80): 101 % of control | T/C (dose: 8.0 mg/kg/injection, schedule: Q01DX010 (ip), vehicle: saline with Tween-80): 19 % of control | T/C (dose: 8.0 mg/kg/injection, schedule: Q01DX010 (sc), vehicle: saline with Tween-80): 112 % of control | T/C (dose: 8.0 mg/kg/injection, schedule: Q04DX003 (sc), vehicle: carboxymethylcellulose (CMC)): 64 % of control and 65 % of control | T/C (dose: 12.5 mg/kg/injection, schedule: Q04DX003 (sc), vehicle: Klucel (hydroxypropylcellulose) (HPC)): 35 % of control | T/C (dose: 13.33 mg/kg/injection, schedule: Q04DX003 (ip), vehicle: saline with Tween-80): 236 % of control | T/C (dose: 16.0 mg/kg/injection, schedule: Q01DX010 (ip), vehicle: saline with Tween-80): 11 % of control | T/C (dose: 16.0 mg/kg/injection, schedule: Q01DX010 (sc), vehicle: saline with Tween-80): 79 % of control | T/C (dose: 26.65 mg/kg/injection, schedule: Q04DX003 (ip), vehicle: saline with Tween-80): 152 % of control | T/C (dose: 32.0 mg/kg/injection, schedule: Q01DX010 (sc), vehicle: saline with Tween-80): -16 % of control | T/C (dose: 32.0 mg/kg/injection, schedule: Q04DX003 (sc), vehicle: carboxymethylcellulose (CMC)): 45 % of control and 52 % of control | T/C (dose: 50.0 mg/kg/injection, schedule: Q04DX003 (sc), vehicle: Klucel (hydroxypropylcellulose) (HPC)): 119 % of control | T/C (dose: 53.33 mg/kg/injection, schedule: Q04DX003 (ip), vehicle: saline with Tween-80): -38 % of control | T/C (dose: 64.0 mg/kg/injection, schedule: Q04DX003 (sc), vehicle: carboxymethylcellulose (CMC)): 10 % of control and 29 % of control

[O-][n+]1c(CN2CCCCC2)nc2cccc3c2c1-c1ccccc1-3
T/C [1]: 82 % of control | T/C [2]: 68 % of control | T/C (dose: 1200.0 mg/kg/injection, schedule: Q04DX003 (sc), vehicle: saline with Tween-80): 77 % of control | T/C (dose: 2400.0 mg/kg/injection, schedule: Q04DX003 (sc), vehicle: saline with Tween-80): 109 % of control

NC(Cn1ccc(=O)c(O)c1)C(=O)O (centres undefined)
T/C (dose: 300.0 mg/kg/injection, schedule: Q04DX003 (sc), vehicle: suspension in saline): 115 % of control | T/C (dose: 600.0 mg/kg/injection, schedule: Q04DX003 (sc), vehicle: suspension in saline): 104 % of control | T/C (dose: 1200.0 mg/kg/injection, schedule: Q04DX003 (sc), vehicle: suspension in saline): 119 % of control | T/C (dose: 2400.0 mg/kg/injection, schedule: Q04DX003 (sc), vehicle: suspension in saline): 73 % of control

Nc1nc(=O)n(C2OC(CO)C(O)C2O)cc1F (centres undefined)
T/C (dose: 150.0 mg/kg/injection, schedule: Q04DX003 (sc), vehicle: Klucel (hydroxypropylcellulose) (HPC)): 74 % of control | T/C [3]: 68 % of control | T/C (dose: 600.0 mg/kg/injection, schedule: Q04DX003 (sc), vehicle: Klucel (hydroxypropylcellulose) (HPC)): 84 % of control | T/C (dose: 1200.0 mg/kg/injection, schedule: Q04DX003 (sc), vehicle: Klucel (hydroxypropylcellulose) (HPC)): 48 % of control

CN1C(=O)NC(c2ccc(Cl)cc2)(c2ccc(Cl)cc2)C1=O
T/C (dose: 50.0 mg/kg/injection, schedule: Q01DX010 (sc), vehicle: saline with Tween-80): 212 % of control | T/C (dose: 100.0 mg/kg/injection, schedule: Q01DX010 (sc), vehicle: saline with Tween-80): 191 % of control | T/C (dose: 400.0 mg/kg/injection, schedule: Q01DX010 (sc), vehicle: saline with Tween-80): 64 % of control

CCCCCC[C@H]([C@H](C)O)n1cnc2c(N)ncnc21
T/C [4]: 52 % of control | T/C [5]: 34 % of control

C[CH2][Ge]([CH2]C)[CH2]C.C[CH2][Ge]([CH2]C)[CH2]C.C[CH2][Ge]([CH2]C)[O][Ge]([CH2]C)[CH2]C
T/C [6]: 91 % of control | T/C [7]: 98 % of control | T/C [1]: 63 % of control | T/C [2]: 114 % of control

OCCN1CCN(CC/C=C2/c3ccccc3Sc3ccc(Cl)cc32)CC1
T/C (dose: 6.25 mg/kg/injection, schedule: Q04DX003 (sc), vehicle: saline): 78 % of control | T/C (dose: 12.5 mg/kg/injection, schedule: Q04DX003 (sc), vehicle: saline): 68 % of control | T/C (dose: 25.0 mg/kg/injection, schedule: Q04DX003 (sc), vehicle: saline): 52 % of control | T/C (dose: 50.0 mg/kg/injection, schedule: Q04DX003 (sc), vehicle: saline): 43 % of control

O=C(Nc1ccc(Cl)c(Cl)c1)Nc1c(Oc2ccc(Cl)c(Cl)c2)ccc(Cl)c1S(=O)(=O)O
T/C [4]: 43 % of control | T/C [5]: 50 % of control | T/C (dose: 400.0 mg/kg/injection, schedule: Q01DX010 (sc), vehicle: Klucel (hydroxypropylcellulose) (HPC)): 69 % of control | T/C (dose: 800.0 mg/kg/injection, schedule: Q01DX010 (sc), vehicle: Klucel (hydroxypropylcellulose) (HPC)): 60 % of control

Nc1n[n+](-c2ccc(Cl)cc2)no1
T/C (dose: 25.0 mg/kg/injection, schedule: Q04DX003 (sc), vehicle: water): 102 % of control | T/C (dose: 100.0 mg/kg/injection, schedule: Q04DX003 (sc), vehicle: water): 95 % of control

C/C=C/C=C1/OC(C)=C(C(C)=O)C1=O
T/C [8]: 107 % of control | T/C [9]: 97 % of control | T/C [10]: 110 % of control | T/C [11]: 92 % of control

C[C@]12CCC(=O)C=C1CC[C@@H]1[C@@H]2[C@@H](O)C[C@@]2(C)[C@H]1CC[C@]2(O)C(=O)CO
T/C [3]: 40 % of control

C[C@@H]1C[C@H]2[C@@H]3CCC4=CC(=O)C=C[C@]4(C)[C@@]3(F)[C@@H](O)C[C@]2(C)[C@@]1(O)C(=O)CO
T/C (dose: 1.56 mg/kg/injection, schedule: Q01DX010 (sc), vehicle: Klucel (hydroxypropylcellulose) (HPC)): 41 % of control | T/C [12]: 32 % of control | T/C [13]: 33 % of control | T/C (dose: 12.5 mg/kg/injection, schedule: Q01DX010 (sc), vehicle: Klucel (hydroxypropylcellulose) (HPC)): 26 % of control

Nc1nc2ccc(NCc3ccc(C(=O)NC(CCC(=O)O)C(=O)O)cc3)cc2c(=O)[nH]1 (centres undefined)
T/C [8]: 94 % of control | T/C [9]: 83 % of control | T/C [10]: 109 % of control | T/C [11]: 63 % of control

C[C@H](N)C(=O)N[C@@H]1[C@H]2C(=C(O)C[C@@H](O)[C@@H]2O)C(=O)O[C@@H]1C
T/C (dose: 300.0 mg/kg/injection, schedule: Q04DX003 (sc), vehicle: saline): 113 % of control | T/C (dose: 600.0 mg/kg/injection, schedule: Q04DX003 (sc), vehicle: saline): 160 % of control | T/C (dose: 900.0 mg/kg/injection, schedule: Q04DX003 (sc), vehicle: saline): 54 % of control | T/C (dose: 1200.0 mg/kg/injection, schedule: Q04DX003 (sc), vehicle: saline): 92 % of control and 115 % of control | T/C (dose: 1800.0 mg/kg/injection, schedule: Q04DX003 (sc), vehicle: saline): 78 % of control

NCCc1ccc(O)c(O)c1
T/C (dose: 200.0 mg/kg/injection, schedule: Q01DX010 (sc), vehicle: saline): 113 % of control | T/C (dose: 400.0 mg/kg/injection, schedule: Q01DX010 (sc), vehicle: saline): 92 % of control | T/C (dose: 800.0 mg/kg/injection, schedule: Q01DX010 (sc), vehicle: saline): 52 % of control

COc1cc2c(c(OC)c1OC)-c1ccc(OC)c(=O)cc1[C@@H](N)CC2
T/C (dose: 0.31 mg/kg/injection, schedule: Q01DX010 (sc), vehicle: Klucel (hydroxypropylcellulose) (HPC)): 104 % of control | T/C (dose: 0.63 mg/kg/injection, schedule: Q01DX010 (sc), vehicle: Klucel (hydroxypropylcellulose) (HPC)): 74 % of control | T/C (dose: 1.25 mg/kg/injection, schedule: Q01DX010 (sc), vehicle: Klucel (hydroxypropylcellulose) (HPC)): 76 % of control | T/C (dose: 1.57 mg/kg/injection, schedule: Q01DX010 (sc), vehicle: Klucel (hydroxypropylcellulose) (HPC)): 79 % of control | T/C (dose: 2.5 mg/kg/injection, schedule: Q01DX010 (sc), vehicle: Klucel (hydroxypropylcellulose) (HPC)): 50 % of control | T/C [12]: 61 % of control | T/C [13]: 66 % of control

COc1cc2c3c(cccc3c1)C(=O)N(CCN(C)C)C2=O
T/C [6]: 98 % of control | T/C [7]: 115 % of control | T/C [1]: 53 % of control | T/C [2]: 79 % of control

OCCN1CCN(CCCN2c3ccccc3Sc3ccc(C(F)(F)F)cc32)CC1
T/C (dose: 20.0 mg/kg/injection, schedule: Q01DX010 (sc), vehicle: saline): 69 % of control | T/C (dose: 40.0 mg/kg/injection, schedule: Q01DX010 (sc), vehicle: saline): 75 % of control
